Drawing on ChEMBL document CHEMBL1148933, “Tetradehydrohalicyclamine A and 22-hydroxyhalicyclamine A, new cytotoxic bis-piperidine alkaloids from a marine sponge Amphimedon sp” (J Nat Prod, 2004), this text covers IC50 for two compounds.

This assay has as its system P388. The assay can be described thus: Cytotoxicity against mouse P388 cells. Type of assay: functional, cell-based.

Turning to `C1=C2CCCC/C=C\C=C\CCN3CC[C@@H]4[C@H](CCCCCC/C=C\C=C/CCN(C2)C[C@H]14)C3.O=C(O)C(F)(F)F.O=C(O)C(F)(F)F` [HALICYCLAMINE A TFA], the IC50 (commonly the point on the concentration scale where inhibition reaches its midpoint) stood at 0.45 µg/mL.

In turn, `C1=C\CCCCCC[C@@H]2CN3CC/C=C/C=C\CCCCc4cc(c[n+](c4)CC\C=C/1)[C@@H]2CC3.O=C(O)C(F)(F)F.O=C([O-])C(F)(F)F` [TETRADEHYDROHALICYCLAMINE A] returned an IC50 of 2.2 µg/mL.
